Laboratory results from ChEMBL document CHEMBL1201862, “PubChem BioAssay data set” (2004).
The source made the active and inactive calls.

Columns and labels:
[1] = target: Low molecular weight phosphotyrosine protein phosphatase (Homo sapiens, UniProt P24666); type: functional; conditions: read-out: IC50_Mean;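 further: Dose-response confirmation assay measuring inhibition of LMPTP enzyme activity by fluorescence intensity read-out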
[2] = target: Peroxisome proliferator-activated receptor gamma/Nuclear receptor coactivator 2 (Homo sapiens, UniProt P37231); experiment: TR-FRET dose response biochemical High Throughput Screening assay for agonists of the steroid receptor coactivator 2 (SRC-2) recruitment by the peroxisome proliferator-activated receptor gamma (PPAR gamma): non-selective agonists. [Related pubchem assays: 1297, 1032 ]; type: functional
[3] = target: Peroxisome proliferator-activated receptor gamma/Nuclear receptor coactivator 3 (Homo sapiens, UniProt P37231); experiment: TR-FRET dose response biochemical High Throughput Screening assay for agonists of the steroid receptor coactivator 3 (SRC-3) recruitment by the peroxisome proliferator-activated receptor gamma (PPAR gamma): non-selective agonists. [Related pubchem assays: 1301 (Confirmation screen.), 1048 (Primary screen.)]; type: functional
[4] = Luminescence Cell-Based Dose Retest to Confirm Inhibitors of Cancer Stem Cells. [Related pubchem assays (depositor defined):AID2717, AID2721]; type: functional; conditions: Homo sapiens
[5] = target: Mitogen-activated protein kinase 10 (Homo sapiens, UniProt P53779); experiment: Dose response biochemical screening assay for inhibitors of c-Jun N-Terminal Kinase 3 (JNK3). [Related pubchem assays: 746 ]
[6] = target: Photoreceptor-specific nuclear receptor (Homo sapiens, UniProt Q9Y5X4); type: functional, cell-based;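 further: CHO-S cells with Gal4-NCOR and VP16-NR2E3 two-hybrid luciferase reporter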
[7] = target: Peroxisome proliferator-activated receptor gamma/Nuclear receptor coactivator 1 (Homo sapiens, UniProt P37231); experiment: TR-FRET dose response biochemical High Throughput Screening assay for agonists of the steroid receptor coactivator 1 (SRC-1) recruitment by the peroxisome proliferator-activated receptor gamma (PPAR gamma): non-selective agonists. [Related pubchem assays (depositor defined):AID1300, AID1808, AID504735, AID631]; type: protein assay
[8] = Counterscreen for antagonists of the orexin 1 receptor (OX1R; HCRTR1): Fluorescence-based cell-based high throughput dose response assay to identify antagonists of the parental CHO cell line. [Related pubchem assays (depositor defined):AID434989, AID435008, AID463079, AID485270, AID492963, AID492964, AID492965, AID493232, AID504699, AID504701]; type: functional
CHO-K1 = experiment: Counterscreen for antagonists of the orexin 1 receptor (OX1R; HCRTR1): Homogeneous time resolved fluorescence (HTRF)-based cell-based dose response assay to identify antagonists of the parental CHO-K1 cell line. [Related pubchem assays (depositor defined):AID434989, AID435008, AID463079, AID485270, AID492963, AID492964, AID492965, AID493232, AID504699, AID504701]; type: functional; conditions: Cricetulus griseus;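 further: potency for inhibition of ATP-stimulated IP1 production as antagonists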
Orexin receptor type 2 [9] = target: T1, Orexin receptor type 2 (Homo sapiens, UniProt O43614); experiment: Counterscreen assay for antagonists of the orexin 1 receptor (OX1R; HCRTR1): Fluorescence-based cell-based dose response assay for antagonists of the orexin 2 receptor (OX2R; HCRTR2), run by assay provider.; type: functional
T1 sequence (O43614 whole entry): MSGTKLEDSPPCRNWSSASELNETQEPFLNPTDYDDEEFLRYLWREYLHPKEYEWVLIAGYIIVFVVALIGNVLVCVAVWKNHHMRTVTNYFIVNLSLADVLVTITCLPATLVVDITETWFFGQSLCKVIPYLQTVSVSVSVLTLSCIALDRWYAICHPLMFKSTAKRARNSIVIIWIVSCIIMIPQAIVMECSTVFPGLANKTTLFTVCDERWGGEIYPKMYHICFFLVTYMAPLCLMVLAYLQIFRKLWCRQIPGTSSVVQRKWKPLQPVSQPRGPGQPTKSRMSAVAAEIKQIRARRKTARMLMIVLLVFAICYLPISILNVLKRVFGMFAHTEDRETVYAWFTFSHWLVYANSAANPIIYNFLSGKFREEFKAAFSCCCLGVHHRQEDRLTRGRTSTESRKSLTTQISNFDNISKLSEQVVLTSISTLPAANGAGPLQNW

Orexin receptor type 2 [10] = target: T1, Orexin receptor type 2; experiment: Counterscreen assay for antagonists of the orexin 1 receptor (OX1R; HCRTR1): Homogeneous Time Resolved Fluorescence (HTRF)-based cell-based dose response assay for antagonists of the orexin 2 receptor (OX2R; HCRTR2), run by assay provider.; type: functional
[11] = HEp-2 cell cytotoxicity, dose response, cytotoxicity control for RSV inhibitor project, HTS (AID 2410); type: functional; conditions: human respiratory syncytial virus
[12] = target: T2, Orexin/Hypocretin receptor type 1 (Homo sapiens, UniProt O43613); experiment: Fluorescence-based cell-based high throughput dose response assay for antagonists of the orexin 1 receptor (OX1R; HCRTR1). [Related pubchem assays (depositor defined):AID434989, AID435008, AID463079, AID485270, AID492963, AID492964, AID492965, AID493232, AID504717, AID504718]; type: functional
T2 sequence (O43613 whole entry): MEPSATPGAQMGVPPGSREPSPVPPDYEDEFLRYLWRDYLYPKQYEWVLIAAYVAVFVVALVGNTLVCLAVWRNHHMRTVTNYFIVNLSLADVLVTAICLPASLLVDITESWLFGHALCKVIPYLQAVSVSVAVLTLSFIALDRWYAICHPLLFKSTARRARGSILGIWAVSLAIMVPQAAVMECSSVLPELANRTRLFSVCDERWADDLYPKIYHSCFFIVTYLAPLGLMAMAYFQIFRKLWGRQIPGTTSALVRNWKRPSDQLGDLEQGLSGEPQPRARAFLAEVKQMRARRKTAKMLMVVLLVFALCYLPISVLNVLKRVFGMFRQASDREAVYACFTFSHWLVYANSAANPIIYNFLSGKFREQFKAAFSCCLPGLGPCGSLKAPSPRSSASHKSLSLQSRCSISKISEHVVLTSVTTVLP

[13] = target: T2, Orexin/Hypocretin receptor type 1; experiment: Homogeneous Time Resolved Fluorescence (HTRF)-based cell-based high throughput dose response assay for antagonists of the orexin 1 receptor (OX1R; HCRTR1). [Related pubchem assays (depositor defined):AID434989, AID435008, AID463079, AID485270, AID492963, AID492964, AID492965, AID493232, AID504717, AID504718]; type: functional
Protein Wnt-3a = Protein Wnt-3a (Mus musculus, UniProt P27467); experiment: Wnt3a-driven reporter signaling inhibition, dose response, selectivity assay for Gli-SUFU antagonist project, Wnt-LIGHT cells, luminescence (AID 651570); type: functional; conditions: read-out: IC50_Mean;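 further: Wnt-LIGHT reporter cells stimulated with conditioned medium from Wnt3a-producing cells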
INS1 = experiment: beta cell apoptosis inhibitors, cytokine rescue, dose response, luminescence, retest (AID 449756); type: functional, cell-based; conditions: Rattus norvegicus;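 further: cell death triggered by IL-1 beta plus TNF-alpha plus IFN-gamma mixture; protective hits raise ATP signal compared with cytokine alone wells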
[14] = Shn3 3'UTR reporter inhibitors, dose response, cell-based, Clone20 osteoblasts, firefly luciferase, cherry-picked (AID 624132); type: functional;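 further: firefly luciferase luminescence from reporter carrying the Shn3 3'UTR in osteoblasts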
[15] = HepG2 cell cytotoxicity, dose response, cytotoxicity control for Shn3 inhibitor project, CellTiter-Glo, cherry-picked (AID 624134); type: functional, cell-based
[16] = inhibitors of intracellular T. cruzi replication, confirmation, NIH3T3 host cells, beta-gal luminescence (AID 2044); type: functional, cell-based;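 further: intracellular parasites grown in NIH/3T3 mouse fibroblasts as host cells; luminescent beta-galactosidase reporter signal from transgenic T. cruzi replicating inside host cells; inhibitors lower the luminescence signal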
[17] = cytotoxicity toward NIH3T3 fibroblasts, dose response, counter-screen, cell-based, ATP luminescence, mouse fibroblasts (AID 2010); type: functional;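 further: cells exposed to compound for about 90 hours before reading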
Cytochrome P450 2C9 = Cytochrome P450 2C9 (Homo sapiens, UniProt P11712)
Steroidogenic factor 1 = Steroidogenic factor 1 (Homo sapiens, UniProt Q13285); experiment: Counterscreen for inverse agonists of the liver receptor homolog-1 (LRH-1; NR5A2): Luminescence-based cell-based high throughput dose response assay to identify inverse agonists of the Steroidogenic Factor 1 Nuclear Receptor (SF1; NR5A1).; type: functional
[18] = target: Nuclear receptor subfamily 5 group A member 2 (Homo sapiens, UniProt O00482); type: functional, cell-based;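 further: HEK293T cells transfected with LRH-1 and a StAR promoter luciferase reporter; potency for inhibitors that lower LRH-1 driven reporter light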
[19] = StAR promoter reporter inhibition counter-screen, dose response, counter-screen for LRH-1 inverse agonist project, cell-based, luminescence, luciferase reporter (AID 651969); type: functional
[20] = target: Ras and Rab interactor 1/Tyrosine-protein kinase ABL1 (Homo sapiens, UniProt P00519+Q13671); type: functional;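 further: biochemical TR-FRET dose-response test measuring inhibition of binding between Rin1 and Abl proteins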
[21] = target: Hepatocyte nuclear factor 4-alpha (Homo sapiens, UniProt P41235); type: functional, cell-based;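 further: biochemical luminescence-based dose-response counterscreen measuring inhibition of HNF4 dimerization, run alongside a screen for blockers of ABHD5–perilipin-5 interaction; split luciferase complementation of HNF4 fusion proteins in cell lysate measuring dimerization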
[22] = target: Mitochondrial peptide methionine sulfoxide reductase (Bos taurus, UniProt P54149); type: functional;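 further: absorbance read-out, biochemical high-throughput dose-response screen for MsrA inhibitors, confirmatory; recombinant bovine MsrA coupled to E. coli TrxB with NADPH and selenocystamine; potency is for inhibitors of MsrA activity on DMSO substrate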
[23] = target: T3, Heat shock factor protein 1 (Mus musculus, UniProt P38532); experiment: inhibition of MG132-induced HSE-luciferase signal, confirmation, cell-based, NIH3T3, luminescence, dose retest (AID 2382); type: functional;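 further: NIH3T3 fibroblasts with HSF1-driven luciferase reporter stressed by proteasome inhibitor MG132; luminescence from HSF1-driven luciferase expression after 8 hours of MG132 stress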
T3 sequence (P38532 whole entry): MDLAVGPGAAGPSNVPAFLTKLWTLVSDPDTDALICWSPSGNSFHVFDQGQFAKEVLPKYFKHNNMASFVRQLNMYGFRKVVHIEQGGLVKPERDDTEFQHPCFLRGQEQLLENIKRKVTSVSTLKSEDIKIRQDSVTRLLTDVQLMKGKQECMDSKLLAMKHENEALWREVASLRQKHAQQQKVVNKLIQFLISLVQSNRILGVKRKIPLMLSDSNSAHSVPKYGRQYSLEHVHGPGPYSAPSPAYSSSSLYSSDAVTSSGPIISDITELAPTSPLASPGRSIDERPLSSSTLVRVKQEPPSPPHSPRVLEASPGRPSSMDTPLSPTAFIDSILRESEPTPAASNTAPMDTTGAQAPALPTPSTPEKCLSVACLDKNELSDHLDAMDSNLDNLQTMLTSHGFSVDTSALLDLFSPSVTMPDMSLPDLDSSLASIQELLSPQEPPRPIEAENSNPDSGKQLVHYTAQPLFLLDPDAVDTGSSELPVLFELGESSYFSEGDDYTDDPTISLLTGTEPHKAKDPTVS

Ras and Rab interactor 1/Tyrosine-protein kinase ABL1, sequence (P00519 whole entry, the tested form may be a part): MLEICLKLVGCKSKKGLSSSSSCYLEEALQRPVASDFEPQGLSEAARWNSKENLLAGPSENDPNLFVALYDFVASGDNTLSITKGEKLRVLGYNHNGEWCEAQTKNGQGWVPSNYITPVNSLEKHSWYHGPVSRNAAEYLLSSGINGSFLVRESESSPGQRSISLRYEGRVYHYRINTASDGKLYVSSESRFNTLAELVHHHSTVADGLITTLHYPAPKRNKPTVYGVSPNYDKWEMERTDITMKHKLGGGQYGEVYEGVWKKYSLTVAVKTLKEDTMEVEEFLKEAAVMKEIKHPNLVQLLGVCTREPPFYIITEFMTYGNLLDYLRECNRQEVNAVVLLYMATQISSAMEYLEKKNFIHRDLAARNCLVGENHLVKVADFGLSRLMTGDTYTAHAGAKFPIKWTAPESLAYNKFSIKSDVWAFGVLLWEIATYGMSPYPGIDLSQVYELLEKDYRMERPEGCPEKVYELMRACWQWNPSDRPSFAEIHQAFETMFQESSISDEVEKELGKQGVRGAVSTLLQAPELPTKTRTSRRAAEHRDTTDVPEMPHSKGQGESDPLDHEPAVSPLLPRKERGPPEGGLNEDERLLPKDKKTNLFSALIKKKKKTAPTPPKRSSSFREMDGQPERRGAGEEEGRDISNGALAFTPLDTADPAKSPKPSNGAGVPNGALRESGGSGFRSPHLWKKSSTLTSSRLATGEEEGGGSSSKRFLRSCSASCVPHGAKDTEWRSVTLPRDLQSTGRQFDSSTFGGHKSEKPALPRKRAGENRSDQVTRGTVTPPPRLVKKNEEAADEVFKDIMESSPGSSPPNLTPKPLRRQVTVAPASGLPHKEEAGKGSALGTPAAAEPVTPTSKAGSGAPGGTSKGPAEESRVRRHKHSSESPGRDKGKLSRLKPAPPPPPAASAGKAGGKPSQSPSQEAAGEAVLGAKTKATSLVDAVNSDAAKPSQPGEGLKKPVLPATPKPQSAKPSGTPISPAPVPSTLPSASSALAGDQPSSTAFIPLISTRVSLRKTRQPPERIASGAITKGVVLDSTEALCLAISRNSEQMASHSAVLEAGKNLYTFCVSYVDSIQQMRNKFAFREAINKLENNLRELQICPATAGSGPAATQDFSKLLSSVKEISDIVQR
Ras and Rab interactor 1/Tyrosine-protein kinase ABL1, sequence (Q13671 whole entry, the tested form may be a part): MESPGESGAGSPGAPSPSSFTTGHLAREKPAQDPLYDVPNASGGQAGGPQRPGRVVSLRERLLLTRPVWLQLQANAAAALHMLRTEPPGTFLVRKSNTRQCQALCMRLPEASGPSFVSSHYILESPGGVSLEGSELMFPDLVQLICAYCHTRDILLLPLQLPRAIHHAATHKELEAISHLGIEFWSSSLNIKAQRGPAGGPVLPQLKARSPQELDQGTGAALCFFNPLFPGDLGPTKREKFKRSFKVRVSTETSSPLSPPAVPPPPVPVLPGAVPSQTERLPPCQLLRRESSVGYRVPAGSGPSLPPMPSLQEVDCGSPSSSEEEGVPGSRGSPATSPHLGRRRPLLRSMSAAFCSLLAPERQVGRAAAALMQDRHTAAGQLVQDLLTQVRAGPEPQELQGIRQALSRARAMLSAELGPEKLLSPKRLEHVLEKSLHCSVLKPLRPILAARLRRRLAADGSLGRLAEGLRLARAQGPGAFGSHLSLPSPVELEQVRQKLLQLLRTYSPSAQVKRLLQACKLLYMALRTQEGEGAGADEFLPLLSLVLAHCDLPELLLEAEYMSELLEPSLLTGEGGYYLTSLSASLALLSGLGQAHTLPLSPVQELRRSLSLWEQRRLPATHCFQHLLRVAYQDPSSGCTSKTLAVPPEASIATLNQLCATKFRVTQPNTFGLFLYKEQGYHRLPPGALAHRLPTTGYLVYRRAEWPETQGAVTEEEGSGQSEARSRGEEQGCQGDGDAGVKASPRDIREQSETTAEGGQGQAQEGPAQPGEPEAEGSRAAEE
Nuclear receptor subfamily 5 group A member 2, sequence (O00482 whole entry): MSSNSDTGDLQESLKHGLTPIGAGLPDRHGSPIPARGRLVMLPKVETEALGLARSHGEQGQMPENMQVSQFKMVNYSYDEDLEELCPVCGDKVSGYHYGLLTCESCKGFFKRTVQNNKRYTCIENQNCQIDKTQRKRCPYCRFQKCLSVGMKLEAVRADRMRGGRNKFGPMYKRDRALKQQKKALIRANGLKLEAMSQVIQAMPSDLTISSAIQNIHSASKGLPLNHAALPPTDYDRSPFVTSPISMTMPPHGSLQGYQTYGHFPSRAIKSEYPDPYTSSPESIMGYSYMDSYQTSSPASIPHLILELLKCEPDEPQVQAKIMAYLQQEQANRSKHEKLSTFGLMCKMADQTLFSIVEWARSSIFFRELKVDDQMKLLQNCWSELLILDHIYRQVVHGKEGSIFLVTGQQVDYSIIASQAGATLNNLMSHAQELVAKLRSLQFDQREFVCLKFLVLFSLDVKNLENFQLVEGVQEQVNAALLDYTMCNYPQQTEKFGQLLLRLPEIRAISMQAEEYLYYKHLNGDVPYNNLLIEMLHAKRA
Protein Wnt-3a, sequence (P27467 whole entry): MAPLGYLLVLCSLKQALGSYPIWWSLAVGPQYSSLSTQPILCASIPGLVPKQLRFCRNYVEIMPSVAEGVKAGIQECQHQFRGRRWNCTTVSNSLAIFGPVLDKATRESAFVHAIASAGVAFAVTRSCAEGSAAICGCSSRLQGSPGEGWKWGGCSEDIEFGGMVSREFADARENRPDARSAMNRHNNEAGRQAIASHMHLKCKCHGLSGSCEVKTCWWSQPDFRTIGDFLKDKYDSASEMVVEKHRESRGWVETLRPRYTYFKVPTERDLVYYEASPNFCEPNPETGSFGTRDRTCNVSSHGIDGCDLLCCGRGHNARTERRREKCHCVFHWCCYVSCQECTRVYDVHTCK
Low molecular weight phosphotyrosine protein phosphatase, sequence (P24666 whole entry): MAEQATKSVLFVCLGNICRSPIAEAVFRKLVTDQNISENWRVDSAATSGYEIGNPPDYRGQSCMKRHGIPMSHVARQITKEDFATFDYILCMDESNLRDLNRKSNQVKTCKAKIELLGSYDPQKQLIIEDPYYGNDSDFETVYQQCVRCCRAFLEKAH
Steroidogenic factor 1, sequence (Q13285 whole entry): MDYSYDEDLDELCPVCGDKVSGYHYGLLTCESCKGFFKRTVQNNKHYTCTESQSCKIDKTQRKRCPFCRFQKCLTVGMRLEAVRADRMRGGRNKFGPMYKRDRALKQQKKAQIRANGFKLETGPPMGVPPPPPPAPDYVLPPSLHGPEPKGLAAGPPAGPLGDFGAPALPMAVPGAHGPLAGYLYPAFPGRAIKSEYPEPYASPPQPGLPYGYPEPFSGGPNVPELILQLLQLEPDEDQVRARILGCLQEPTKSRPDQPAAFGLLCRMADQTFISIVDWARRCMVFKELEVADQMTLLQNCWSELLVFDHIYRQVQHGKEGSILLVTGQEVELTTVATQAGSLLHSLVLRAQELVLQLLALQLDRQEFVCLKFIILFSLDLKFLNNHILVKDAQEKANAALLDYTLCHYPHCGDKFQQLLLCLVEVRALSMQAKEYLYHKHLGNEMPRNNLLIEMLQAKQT
Mitochondrial peptide methionine sulfoxide reductase, sequence (P54149 whole entry): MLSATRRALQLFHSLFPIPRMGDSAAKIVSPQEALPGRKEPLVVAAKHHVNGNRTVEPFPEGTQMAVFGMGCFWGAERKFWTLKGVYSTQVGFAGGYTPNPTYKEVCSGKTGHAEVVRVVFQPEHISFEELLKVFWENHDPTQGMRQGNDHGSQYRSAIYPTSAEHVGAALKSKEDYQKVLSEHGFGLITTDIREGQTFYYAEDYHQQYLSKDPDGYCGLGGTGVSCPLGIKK
Hepatocyte nuclear factor 4-alpha, sequence (P41235 whole entry, the tested form may be a part): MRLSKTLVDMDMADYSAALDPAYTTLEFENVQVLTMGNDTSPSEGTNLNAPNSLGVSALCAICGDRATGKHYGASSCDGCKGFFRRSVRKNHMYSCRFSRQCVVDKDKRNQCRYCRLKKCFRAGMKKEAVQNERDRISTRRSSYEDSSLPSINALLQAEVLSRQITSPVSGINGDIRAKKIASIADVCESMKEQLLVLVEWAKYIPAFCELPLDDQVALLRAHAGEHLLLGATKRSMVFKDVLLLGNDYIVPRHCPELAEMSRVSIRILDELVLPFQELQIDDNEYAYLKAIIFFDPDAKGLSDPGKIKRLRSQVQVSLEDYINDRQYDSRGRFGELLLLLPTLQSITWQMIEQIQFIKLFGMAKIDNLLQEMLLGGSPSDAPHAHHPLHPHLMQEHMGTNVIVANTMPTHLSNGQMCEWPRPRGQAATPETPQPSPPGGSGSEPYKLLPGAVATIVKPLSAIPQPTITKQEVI
Photoreceptor-specific nuclear receptor, sequence (Q9Y5X4 whole entry, the tested form may be a part): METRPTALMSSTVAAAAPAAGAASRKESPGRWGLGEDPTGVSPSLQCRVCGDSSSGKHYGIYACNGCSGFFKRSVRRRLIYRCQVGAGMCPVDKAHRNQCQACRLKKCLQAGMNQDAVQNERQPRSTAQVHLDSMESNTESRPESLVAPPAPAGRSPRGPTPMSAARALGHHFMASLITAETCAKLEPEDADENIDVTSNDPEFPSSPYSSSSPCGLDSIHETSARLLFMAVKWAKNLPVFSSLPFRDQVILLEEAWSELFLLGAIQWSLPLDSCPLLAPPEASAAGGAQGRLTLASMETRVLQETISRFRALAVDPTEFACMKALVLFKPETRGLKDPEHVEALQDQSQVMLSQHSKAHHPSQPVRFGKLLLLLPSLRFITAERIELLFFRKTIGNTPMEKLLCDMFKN

Cc1csc2nc(O)c(C(=O)NCc3ccc4c(c3)OCO4)c(=O)n12
IC50 [1]: 80 µM (inactive)

Cc1ccnc(NC(=O)CSc2cc(=O)n(C)c3ccccc23)c1
EC50 [2]: > 79.4 µM (not active)
EC50 [3]: > 79.4 µM (not active)
AC50 [4]: 1.03 µM (active)
IC50 [5]: > 93.1 µM (not active)
IC50 [6]: 0.664 µM (active)
EC50 [7]: > 79.4 µM (inactive)

CNC(=O)NC(=O)C(C)OC(=O)c1c2c(nc3ccccc13)/C(=C/c1cccs1)CC2 (stereo unspecified)
IC50 [8]: > 49.7 µM (inactive)
IC50 (CHO-K1): > 66.2 µM (inactive)
AC50 [4]: 2.41 µM (active)
IC50 (Orexin receptor type 2 [9]): 8.7 µM (active)
IC50 (Orexin receptor type 2 [10]): > 50 µM (inactive)
CC50 [11]: > 50 µM (active)
IC50 [12]: 5.01 µM (active)
IC50 [13]: 4.12 µM (active)

COc1ccc(NS(=O)(=O)c2ccc(N3CCOCC3)c(N)c2)cc1
IC50 (Protein Wnt-3a): 1.16 µM (active)
AC50 (INS1): 2.94 µM (active)
AC50 [14]: 1.08 µM (active)
AC50 [15]: 3.99 µM (active)

CCOC(=O)c1sc2nc(CC(=O)OC)nc(NCc3ccc(Cl)cc3)c2c1C
IC50 (Protein Wnt-3a): 3.96 µM (active)

COc1ccc(/C=C/c2nc(N)nc(-c3ccccc3O)n2)cc1OC
IC50 [8]: > 49.8 µM (inactive)
EC50 [16]: 2.09 µM (active)
IC50 (CHO-K1): > 66.3 µM (inactive)
IC50 (Orexin receptor type 2 [9]): 26.9 µM (inactive)
IC50 (Orexin receptor type 2 [10]): > 50 µM (inactive)
CC50 [11]: > 50 µM (active)
IC50 [12]: 3.97 µM (active)
EC50 [17]: > 60 µM (inconclusive)
IC50 [13]: 2.69 µM (active)

COc1ccc(NC(=O)COC(=O)c2c(-c3ccccc3)noc2C)cc1
AC50 (Cytochrome P450 2C9): 20 µM (inconclusive)
IC50 (Steroidogenic factor 1): 1.43 µM (active)
IC50 [18]: 5.15 µM (active)
IC50 [19]: 35.9 µM (inactive)

COc1ccc(NC(=O)CSc2nc(O)c3c(C)cc(C)nc3n2)cc1
IC50 (Steroidogenic factor 1): 1.3 µM (active)
IC50 [18]: 1.37 µM (active)
IC50 [19]: 23.7 µM (inactive)

O=C(Nc1ccccc1)[C@@H]1CC=C[C@@H]2CCN(Cc3ccc(Cl)c(Cl)c3)C(=O)[C@@H]21
IC50 [8]: > 49.7 µM (inactive)
IC50 (CHO-K1): > 66.2 µM (inactive)
IC50 (Orexin receptor type 2 [9]): > 88.8 µM (inactive)
IC50 (Orexin receptor type 2 [10]): > 50 µM (inactive)
IC50 [12]: 4.28 µM (active)
IC50 [13]: 0.484 µM (active)

CN(Cc1cnccn1)C(=O)C1CCC(=O)N(CCc2ccccc2)C1 (stereo unspecified)
IC50 [20]: 17.5 µM (inactive)

CCOC(=O)CCCCCC(=O)Nc1ccc2c(c1)C(=O)N([C@@H](C)CO)C[C@@H](C)[C@H](CN(C)C(=O)Nc1ccccc1)OCCCC[C@H](C)O2
IC50 [20]: 17.3 µM (inactive)

COc1ccc(NC(=O)C(c2ccc(OC)cc2)n2c(=O)c(-c3ccco3)nc3ccccc32)cc1 (stereo unspecified)
IC50 [21]: 15.7 µM (inactive)

O=C(N/N=C/c1ccc(Br)s1)c1ccc([N+](=O)[O-])cc1
EC50 [16]: 3.76 µM (active)
IC50 [1]: 9.73 µM (active)
EC50 [17]: 8.96 µM (active)

O=C(O)CC1SC(N/N=C/C=C/c2ccccc2)=NC1=O (stereo unspecified)
IC50 [22]: 118 µM (inactive)

CC(/C=C/c1ccc2c(c1)OCO2)=N/NC(=O)c1ccncc1
EC50 [23]: 35.5 µM (active)
IC50 [22]: 51.7 µM (inactive)
